{
  "source": "paper PMC8456958",
  "about": "“Selective Bacterial Targeting and Infection‐Triggered Release of Antibiotic Colistin Conjugates” (Angewandte Chemie (International Ed. in English), 2021)",
  "key": {"E. coli K12": {"tested_on": "E. coli K12", "format": "cell-based, Escherichia coli", "settings": "for MIC with 10 mU mL^−1 Elastase / MIC with 100 mU mL^−1 Elastase / MIC without Elastase: Table 2, E. coli K12, conservative MIC readouts of at least three independent biological experiments", "procedure": "Determination of antibacterial activities by broth dilution assay\nBacterial suspensions at 5-6 x 10^5 CFU (1:1000 dilution of a bacterial suspension of OD600 = 1) in T-medium were incubated in volumes of 200 µl in sterile clear 96-well microtiter plates at 37 °C in a wet chamber with serial dilution of peptide-colistin constructs and controls (32 – 0.016 µM) for 18 h.\nExternal neutrophil elastase was added at 10 mU/ml or 100 mU/ml to each well at the start of incubation, where indicated. After the incubation, the plate was placed for 5 min on a MTP shaker to generate homogenous bacterial suspensions. OD600 was then determined in a microplate reader. The wells with the lowest compound concentration without growth defined the MICs. […]\nFigure S7. Heat plot of the growth of E. coli K12 and E. coli DSM 1116 in presence of 6. Rows A-D: E. coli K12; Rows E-H: E. coli DSM 1116; A + E colistin; B + F peptide-colistin construct 6; C + G peptide-colistin construct 6 + 10 mU/ml elastase; D + H bacteria without compounds. The numbers below the heatplot depict the concentration of colistin and peptides in µM. Conditions: T medium, incubation 20 h at 37 °C in wet chamber; inoculum: cultures at OD = 1.0 diluted 1:1000 (5-6 x 10^5 CFU/ml). […]\nFigure S10. Heat plot of the growth of E. coli in presence of 48 and 49. Row A: E. coli K12 without added compounds; B colistin B; C peptide-colistin construct 49; D peptide-colistin construct 49 + 10 mU/ml elastase; E ElsaSub-colistin; F 48 with 10 mU elastase; G 4; H 4 with […]. The numbers depict the concentration of colistin and peptides in µM. Conditions: T medium, incubation 17.5 h at 37 °C in wet chamber; inoculum 5-6 x 10^5 CFU/ml. […]\nwith elastase 10 mU/ml pos-1-isomer (22) […]\nwith elastase 10 mU/ml pos-3-isomer (28) […]\nwith elastase 10 mU/ml pos-5-isomer (34) […]\nwith elastase 10 mU/ml pos-8-isomer (40) […]\nwith elastase 10 mU/ml pos-9-isomer (46)\nFigure S11. Heat plot of the growth of E. coli in presence of positional isomers obtained by total chemical synthesis. Conditions: T medium, incubation for 20 h at 37 °C in wet chamber; inoculum 5-6 x 10^5 CFU/ml. Addition of neutrophil elastase at 10 and 100 mU/ml, as indicated. Concentrations of isomers stated below the heat plot in µg/ml. […]"}, "[1]": {"tested_on": "E. coli K12, A. baumannii, P. aeruginosa PA14", "experiment": "Quantification of bacterial binding of fluorescently labelled compounds", "format": "cell-based", "settings": "1 μM in PBS, rt, 1 h incubation, washing, 485/520 nm", "procedure": "Figure 4 Staining of Gram‐negative bacteria with fluorescently labeled colistin conjugates. a) Three Gram‐negative bacteria (E. coli K12, A. baumannii, P. aeruginosa PA14) were grown in T‐medium, to an OD600 of 1.0, and the fluorescently labeled compounds were added (1 μM in PBS, rt, 1 h incubation), followed by washing steps and a quantification of fluorescence in the wells. C‐Fluo: 5(6)‐carboxyfluorescein. […] An overlay of fluorescence (485/520 nm) and phase contrast pictures is shown. […]\nCell counting: 20 µl of a cell suspension were mixed with 20 µl Cedex Tryptan Blue Solution. 10 µl of the mixture were measured automatically in a cell counter (Cedex XS Cell Analyzer, Roche) in duplicate.\nQuantification of bacterial binding of fluorescently labelled compounds The bacterial strains A. baumannii, E. coli K12 and P. aeruginosa PA14 were cultivated in T-medium at 37 °C to exponential growth (OD600 = 2-3). […] Afterwards, the bacteria were washed twice with PBS, suspended at OD600 = 0.2 in PBS and fluorescence was measured at 485/520 nm with 200 µl of bacterial suspensions in black 96-well microtiter plates from above in triplicate. […]"}},
  "data": [
    {"molecule": "4-pentinoyl-ßAla-Ala-Ala-Pro-Val-colistin B (lariat or depsi) [Compound 48]", "values": [
      {"measurement": "MIC", "setting": "E. coli K12; E. coli K12, T medium, 17.5 h at 37 °C (Figure S10), text does not say with or without elastase", "result": 16, "unit": "µM"}
    ]},
    {"molecule": "5(6)‐carboxyfluorescein", "values": [
      {"measurement": "bacterial binding (fluorescence), in words", "setting": "[1]", "result": "did hardly show binding above background"}
    ]},
    {"molecule": "CC[C@H](NC(=O)[C@@H]1C[C@@H]2CCCC[C@@H]2N1C(=O)[C@H](CCS(C)(=O)=O)NC(=O)[C@H](Cc1ccc(C(=O)c2ccccc2)cc1)NC(=O)CCc1cn(CCCC[C@@H](NC(=O)CCNC(=O)[C@@H](CCCNC(=N)N)NC(=O)[C@@H](CCCNC(=N)N)NC(=O)[C@@H](CC(N)=O)NC(=O)[C@@H](Cc2ccc(O)cc2)NC(=O)[C@@H](CCC(N)=O)NC(=O)[C@@H](CCSC)NC(=O)[C@@H](CCCNC(=N)N)NC(=O)[C@@H](CCCNC(=N)N)NC(=O)[C@@H](CCCCN)NC(=O)[C@@H](C)NC(=O)[C@@H](CCCNC(=N)N)NC(=O)CNC(=O)[C@H](N)[C@H](C)O)C(N)=O)nn1)C(=O)NCC[C@H](NC(=O)CCCCC(C)C)C(=O)N[C@H](C(=O)N[C@@H](CCN)C(=O)N[C@H]1CCNC(=O)[C@H]([C@@H](C)O)NC(=O)[C@H](CCN)NC(=O)[C@H](CCN)NC(=O)[C@H](CC(C)C)NC(=O)[C@@H](CC(C)C)NC(=O)[C@H](CCN)NC1=O)[C@@H](C)O", "note": "[Compound 22]", "values": [
      {"measurement": "MIC with 10 mU mL^−1 Elastase", "setting": "E. coli K12", "result": 0.125, "unit": "µM"},
      {"measurement": "MIC with 100 mU mL^−1 Elastase", "setting": "E. coli K12", "result": 0.063, "unit": "µM"},
      {"measurement": "MIC without Elastase", "setting": "E. coli K12", "result": 4, "unit": "µM"}
    ]},
    {"molecule": "CC[C@H](NC(=O)[C@@H]1C[C@@H]2CCCC[C@@H]2N1C(=O)[C@H](CCS(C)(=O)=O)NC(=O)[C@H](Cc1ccc(C(=O)c2ccccc2)cc1)NC(=O)CCc1cn(CCCC[C@@H](NC(=O)CCNC(=O)[C@@H](CCCNC(=N)N)NC(=O)[C@@H](CCCNC(=N)N)NC(=O)[C@@H](CC(N)=O)NC(=O)[C@@H](Cc2ccc(O)cc2)NC(=O)[C@@H](CCC(N)=O)NC(=O)[C@@H](CCSC)NC(=O)[C@@H](CCCNC(=N)N)NC(=O)[C@@H](CCCNC(=N)N)NC(=O)[C@@H](CCCCN)NC(=O)[C@@H](C)NC(=O)[C@@H](CCCNC(=N)N)NC(=O)CNC(=O)[C@H](N)[C@H](C)O)C(N)=O)nn1)C(=O)NCC[C@H](NC(=O)[C@@H](NC(=O)[C@H](CCN)NC(=O)CCCCC(C)C)[C@@H](C)O)C(=O)N[C@H]1CCNC(=O)[C@H]([C@@H](C)O)NC(=O)[C@H](CCN)NC(=O)[C@H](CCN)NC(=O)[C@H](CC(C)C)NC(=O)[C@@H](CC(C)C)NC(=O)[C@H](CCN)NC1=O", "note": "[Compound 28]", "values": [
      {"measurement": "MIC with 10 mU mL^−1 Elastase", "setting": "E. coli K12", "result": 0.25, "unit": "µM"},
      {"measurement": "MIC with 100 mU mL^−1 Elastase", "setting": "E. coli K12", "result": 0.125, "unit": "µM"},
      {"measurement": "MIC without Elastase", "setting": "E. coli K12", "result": 8, "unit": "µM"}
    ]},
    {"molecule": "CC[C@H](NC(=O)[C@@H]1C[C@@H]2CCCC[C@@H]2N1C(=O)[C@H](CCS(C)(=O)=O)NC(=O)[C@H](Cc1ccc(C(=O)c2ccccc2)cc1)NC(=O)CCc1cn(CCCC[C@@H](NC(=O)CCNC(=O)[C@@H](CCCNC(=N)N)NC(=O)[C@@H](CCCNC(=N)N)NC(=O)[C@@H](CC(N)=O)NC(=O)[C@@H](Cc2ccc(O)cc2)NC(=O)[C@@H](CCC(N)=O)NC(=O)[C@@H](CCSC)NC(=O)[C@@H](CCCNC(=N)N)NC(=O)[C@@H](CCCNC(=N)N)NC(=O)[C@@H](CCCCN)NC(=O)[C@@H](C)NC(=O)[C@@H](CCCNC(=N)N)NC(=O)CNC(=O)[C@H](N)[C@H](C)O)C(N)=O)nn1)C(=O)NCC[C@@H]1NC(=O)[C@@H](NC(=O)[C@H](CCN)NC(=O)[C@@H](NC(=O)[C@H](CCN)NC(=O)CCCCC(C)C)[C@@H](C)O)CCNC(=O)[C@H]([C@@H](C)O)NC(=O)[C@H](CCN)NC(=O)[C@H](CCN)NC(=O)[C@H](CC(C)C)NC(=O)[C@@H](CC(C)C)NC1=O", "note": "[Compound 34]", "values": [
      {"measurement": "MIC with 10 mU mL^−1 Elastase", "setting": "E. coli K12", "result": 4, "unit": "µM"},
      {"measurement": "MIC with 100 mU mL^−1 Elastase", "setting": "E. coli K12", "result": 4, "unit": "µM"},
      {"measurement": "MIC without Elastase", "setting": "E. coli K12", "result": ">32", "unit": "µM"}
    ]},
    {"molecule": "CC[C@H](NC(=O)[C@@H]1C[C@@H]2CCCC[C@@H]2N1C(=O)[C@H](CCS(C)(=O)=O)NC(=O)[C@H](Cc1ccc(C(=O)c2ccccc2)cc1)NC(=O)CCc1cn(CCCC[C@@H](NC(=O)CCNC(=O)[C@@H](CCCNC(=N)N)NC(=O)[C@@H](CCCNC(=N)N)NC(=O)[C@@H](CC(N)=O)NC(=O)[C@@H](Cc2ccc(O)cc2)NC(=O)[C@@H](CCC(N)=O)NC(=O)[C@@H](CCSC)NC(=O)[C@@H](CCCNC(=N)N)NC(=O)[C@@H](CCCNC(=N)N)NC(=O)[C@@H](CCCCN)NC(=O)[C@@H](C)NC(=O)[C@@H](CCCNC(=N)N)NC(=O)CNC(=O)[C@H](N)[C@H](C)O)C(N)=O)nn1)C(=O)NCC[C@@H]1NC(=O)[C@H](CC(C)C)NC(=O)[C@@H](CC(C)C)NC(=O)[C@H](CCN)NC(=O)[C@@H](NC(=O)[C@H](CCN)NC(=O)[C@@H](NC(=O)[C@H](CCN)NC(=O)CCCCC(C)C)[C@@H](C)O)CCNC(=O)[C@H]([C@@H](C)O)NC(=O)[C@H](CCN)NC1=O", "note": "[Compound 40]", "values": [
      {"measurement": "MIC with 10 mU mL^−1 Elastase", "setting": "E. coli K12", "result": ">32", "unit": "µM"},
      {"measurement": "MIC with 100 mU mL^−1 Elastase", "setting": "E. coli K12", "result": 32, "unit": "µM"},
      {"measurement": "MIC without Elastase", "setting": "E. coli K12", "result": ">32", "unit": "µM"}
    ]},
    {"molecule": "CC[C@H](NC(=O)[C@@H]1C[C@@H]2CCCC[C@@H]2N1C(=O)[C@H](CCS(C)(=O)=O)NC(=O)[C@H](Cc1ccc(C(=O)c2ccccc2)cc1)NC(=O)CCc1cn(CCCC[C@@H](NC(=O)CCNC(=O)[C@@H](CCCNC(=N)N)NC(=O)[C@@H](CCCNC(=N)N)NC(=O)[C@@H](CC(N)=O)NC(=O)[C@@H](Cc2ccc(O)cc2)NC(=O)[C@@H](CCC(N)=O)NC(=O)[C@@H](CCSC)NC(=O)[C@@H](CCCNC(=N)N)NC(=O)[C@@H](CCCNC(=N)N)NC(=O)[C@@H](CCCCN)NC(=O)[C@@H](C)NC(=O)[C@@H](CCCNC(=N)N)NC(=O)CNC(=O)[C@H](N)[C@H](C)O)C(N)=O)nn1)C(=O)NCC[C@@H]1NC(=O)[C@H](CCN)NC(=O)[C@H](CC(C)C)NC(=O)[C@@H](CC(C)C)NC(=O)[C@H](CCN)NC(=O)[C@@H](NC(=O)[C@H](CCN)NC(=O)[C@@H](NC(=O)[C@H](CCN)NC(=O)CCCCC(C)C)[C@@H](C)O)CCNC(=O)[C@H]([C@@H](C)O)NC1=O", "note": "[Compound 46]", "values": [
      {"measurement": "MIC with 10 mU mL^−1 Elastase", "setting": "E. coli K12", "result": 32, "unit": "µM"},
      {"measurement": "MIC with 100 mU mL^−1 Elastase", "setting": "E. coli K12", "result": 8, "unit": "µM"},
      {"measurement": "MIC without Elastase", "setting": "E. coli K12", "result": ">32", "unit": "µM"}
    ]},
    {"molecule": "(all-D) T-G-R-A-K-R-R-M-Q-Y-N-R-R-ßAla-norleucinamide(1H-1,2,3-triazol-4-yl)propionyl-ßAla-L-Ala-L-Ala-L-Pro-L-Val-colistin B [Compound 49]", "values": [
      {"measurement": "antimicrobial activity (MIC) in the presence of neutrophil elastase", "setting": "E. coli K12; E. coli K12, 10 mU/ml elastase, T medium, 17.5 h at 37 °C (Figure S10)", "result": "> 32", "unit": "µM"},
      {"measurement": "antimicrobial activity (MIC) in the absence of neutrophil elastase", "setting": "E. coli K12; E. coli K12, T medium, 17.5 h at 37 °C (Figure S10)", "result": "> 32", "unit": "µM"}
    ]},
    {"molecule": "Neutrophil elastase: Neutrophil Elastase (human), affinity purified, USBiological", "values": [
      {"measurement": "antimicrobial activity of neutrophil elastase alone", "setting": "E. coli K12; elastase alone, two strains of E. coli (K12 and DSM 1116)", "result": "did not display any antimicrobial activity"}
    ]}
  ]
}
